Measurements reported in article PMC7318538, “Bergenia pacumbis from Nepal, an astonishing enzymes inhibitor” (BMC Complementary Medicine and Therapies, 2020).
Values after ≈ are worked out from the molar mass of the structure shown.

Assays:
[1] = ABTS radical scavenging assay; conditions: 10 min in the dark, absorbance 720 nm; mean ± SD, triplicates
Method: In-vitro 2, 2′-azino-bis (3-ethylbenzothiazoline-6-sulphonic acid) (ABTS) scavenging assay was performed as by Liyanaarachchi et al.. An aliquot of 1 mL of plant extract of varying concentrations was mixed with 3 mL of ABTS working solution and incubated for 10 min in the dark and the decrease in absorbance was recorded at λ = 720 nm in a UV-visible spectrophotometer. Gallic acid and 50% methanol were used as reference and positive control respectively.

[2] = DPPH radical scavenging assay; conditions: 30 min in the dark, absorbance 517 nm; mean ± SD, triplicates
Method: In-vitro antioxidant potential of the different extracts of B. pacumbis was assessed by 1,1-diphenyl 1–2-picryl-hydrazyl (DPPH) assay accordingly with Jha et al.. One milliliter of plant extract of different concentrations was added in 3 mL of the DPPH solution ([…]) and incubated for 30 min in the dark. Absorbance was measured at the wavelength (λ) = 517 nm in a UV-visible spectrophotometer (UV-1800, SHIMADZU). Gallic acid and methanolic DPPH were used as reference and positive control respectively.

O=C(O)c1cc(O)c(O)c(O)c1 [Gallic Acid]
IC50 Value ABTS [1]: 1.96 ± 0.05 µg/mL (≈ 11.5 µM) | IC50 Value DPPH [2]: 5.12 ± 0.12 µg/mL (≈ 30.1 µM)
